Consider one compound from ChEMBL document CHEMBL1152114, “Synthesis of conformationally constrained potential inhibitors of mammalian metalloproteinases” (Bioorg Med Chem Lett, 1997).

The target of test [1] is Matrix metalloproteinase-9 (Homo sapiens, UniProt P14780). Briefly: Inhibition of Gelatinase B, matrix metalloprotease-9.
The test system of test [2] is L1210. The test is described as follows: Compound was evaluated for the inhibitory activity against L1210 cell lines. It counts as functional, cell-based. The settings on record: Mus musculus.
For test [3], the target named is 72 kDa type IV collagenase (Homo sapiens, UniProt P08253). The test is described as follows: Inhibition of Gelatinase A, matrix metalloprotease-2.
Chain of 72 kDa type IV collagenase (P08253 whole entry): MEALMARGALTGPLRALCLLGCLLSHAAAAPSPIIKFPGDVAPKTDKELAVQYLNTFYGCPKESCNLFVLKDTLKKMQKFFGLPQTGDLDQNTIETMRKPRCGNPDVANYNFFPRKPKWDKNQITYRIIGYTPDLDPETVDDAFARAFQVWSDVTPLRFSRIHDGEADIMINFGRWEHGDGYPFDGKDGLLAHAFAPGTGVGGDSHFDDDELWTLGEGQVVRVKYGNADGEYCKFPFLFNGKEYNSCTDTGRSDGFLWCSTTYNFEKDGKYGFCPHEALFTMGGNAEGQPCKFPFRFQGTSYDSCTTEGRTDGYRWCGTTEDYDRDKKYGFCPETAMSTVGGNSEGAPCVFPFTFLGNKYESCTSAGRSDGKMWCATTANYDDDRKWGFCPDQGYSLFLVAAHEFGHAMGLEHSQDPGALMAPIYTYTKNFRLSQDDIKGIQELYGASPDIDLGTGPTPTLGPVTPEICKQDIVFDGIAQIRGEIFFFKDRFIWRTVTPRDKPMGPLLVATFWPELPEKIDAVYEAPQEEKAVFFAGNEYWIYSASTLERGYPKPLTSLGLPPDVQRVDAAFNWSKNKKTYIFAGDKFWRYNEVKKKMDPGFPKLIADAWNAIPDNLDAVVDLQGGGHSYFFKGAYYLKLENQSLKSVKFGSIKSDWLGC

Chain of Matrix metalloproteinase-9 (P14780 whole entry): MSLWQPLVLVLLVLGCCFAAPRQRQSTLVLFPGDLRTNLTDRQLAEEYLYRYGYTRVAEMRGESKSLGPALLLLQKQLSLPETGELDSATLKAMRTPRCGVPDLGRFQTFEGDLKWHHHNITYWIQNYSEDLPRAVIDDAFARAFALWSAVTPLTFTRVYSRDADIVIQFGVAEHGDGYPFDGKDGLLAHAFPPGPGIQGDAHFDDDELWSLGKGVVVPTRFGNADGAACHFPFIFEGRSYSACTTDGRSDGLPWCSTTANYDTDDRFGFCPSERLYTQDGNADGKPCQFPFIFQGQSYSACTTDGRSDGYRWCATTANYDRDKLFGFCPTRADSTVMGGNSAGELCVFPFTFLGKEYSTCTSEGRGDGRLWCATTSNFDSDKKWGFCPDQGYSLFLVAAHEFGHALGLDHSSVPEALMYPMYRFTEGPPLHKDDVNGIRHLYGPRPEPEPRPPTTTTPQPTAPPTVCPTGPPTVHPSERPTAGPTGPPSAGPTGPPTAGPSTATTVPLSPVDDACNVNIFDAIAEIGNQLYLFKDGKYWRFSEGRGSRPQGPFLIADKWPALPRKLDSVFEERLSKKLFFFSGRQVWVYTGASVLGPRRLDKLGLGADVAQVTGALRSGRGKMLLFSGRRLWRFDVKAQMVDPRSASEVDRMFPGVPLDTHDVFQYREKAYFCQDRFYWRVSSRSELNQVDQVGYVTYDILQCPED

What is called IC50 is the point on the concentration scale where inhibition reaches its midpoint. Low readings indicate inhibition by little substance, high ones a need for much substance. With `CNC(=O)[C@H](Cc1ccccc1)NC(=O)[C@H]1[C@@H](COCC(=O)NO)[C@@H]1CSc1ccccc1`, the figures for the IC50 in test [1], in test [2] and in test [3] were 36 µM, above 1000 µM and 32 µM, respectively.
